Data reported in US20130150455A1, “METHOD FOR TREATING MECHANICAL ALLODYNIA COMPRISING ADMINISTRATION OF EUGENOL” (SNU R&DB FOUNDATION, priority 2011, published 2013).
Entries after “also recorded” stand apart in the source; their conditions may differ.

Key:
injured nerve fibers = settings: in vivo; cited from earlier work
Ih conductance = settings: cited from earlier work
ION-CCI rats [1] = test: Mechanical allodynia, air-puff threshold head withdrawal test; type: in vivo, rat
Experimental: (§1) All surgical and experimental procedures were reviewed and approved by the Institutional Animal Care and Use Committee at the School of Dentistry, Seoul National University. Animal treatments were performed in strict accordance with the ethical guidelines of the International Association for the Study of Pain for the investigations of experimental pain in conscious animals [Zimmermann, M., Pain, 1983, 16: 109-110], and the National Institute of Health Guide for the Care and Use of Laboratory Animals. Behavioral tests were carried out on male Sprague Dawley rats (OrientBio, Sungnam, Korea) weighing 200-250 g. The rats were maintained in a temperature-controlled room with a 12/12-h light/dark cycle and fed food and water ad libitum. The animals were allowed to habituate to the housing facilities for 1 week before the experiments.
(§2) Surgical procedures were performed under 0.5 mL/kg (i.m.) of a mixture of equal volumes of ketamine (100 mg/mL) and xylazine (20 mg/mL) anesthesia. Under anesthesia, a chronic constriction injury of the infraorbital nerve (ION-CCI) was performed from the original description of Imamura et al. [Imamura, Y. et al., Exp. Brain Res., 1997, 116: 97-103]. A 1-cm-long incision was made along the gingivobuccal margin. The incision was begun proximal to the first molar. Approximately 0.5 cm of the ION was separated from the adhering tissue, and 2 ligatures (5-0 chromic gut) were tied loosely around it. The incision was sutured at 3 points with 4-0 silk. The sham operation was performed without ligation of the infraorbital nerve.
On postoperative 7 day, ION-CCI rats were placed in customized observation cages that were then placed in a darkened and noise-free room to conduct behavioral observations. The animals were acclimated for at least 30 min. Mechanical allodynia was determined as previously described [Ahn, D. K. et al., Pain, 2009, 146: 114-120], by observing withdrawal behavior, produced by 10 successive trials of constant air-puff pressure (4-s duration, 10-s intervals) in freely moving rats. The intensity and intervals of the air-puff pressure were controlled with a pneumatic pump module (BH2 system, Harvard Apparatus, Holliston, Mass.). The air puffs were applied through a 26-gauge metal tube (length, 10 cm) located 1 cm from the skin at a 90° angle. Thresholds were determined through the air-puff pressure at which each rat withdrew its head in 50% of the trials. The cutoff pressure for the air puffs was 40 psi. […] After eugenol (1 μg/30 μL, 5 μg/30 μL or 10 μg/30 μL; 200 μM, 1 mM, or 2 mM, respectively) was administered subcutaneously into the vibrissa pad, air-puff thresholds were determined at 15 and 30 min, and at 1, 2, 3, 4, 5, 6, and 24 hr after eugenol injection. In the control group, 30 μL of the vehicle (30% DMSO/saline) was injected subcutaneously.

[2] = test system: voltage-gated sodium channels (VGSCs); test: VGSC currents in TG neurons in normal bath solution; type: cell-based, rat; settings: 200 μM, n=3
Experimental: (B) The left figure represents the comparison of action potentials at an expanded time scale before and after exposure to eugenol (200 μM), and the Right figure represents a summary of the dV/dt analysis. (C) The left figure represents superimposed current traces before and during exposure to eugenol (200 μM) in the normal bath solution where inward currents result from VGSCs, and the right figure represents a summary of eugenol-induced VGSC currents inhibition (n=3).
Whole-cell recordings were made using patch electrodes (4 to 6 MΩ) pulled from borosilicate glass on a Brown-Flaming P-97 horizontal micropipette puller (Sutter Instruments, Novato, Calif.). Voltage- and current-clamp experiments were performed using an HEKA EPC9 amplifier and digitized using ITC16 and Pulse v8.54 software (both from HEKA, Lambrecht/Pfalz, Germany). Signals were filtered at 1 kHz and sampled at 3 kHz. Series resistance was typically less than 20 MΩ and was compensated by about 70 to 80%. Electrical recordings were performed at room temperature. The 3 M KCl agar bridge (Warner Instruments, Hamden, Conn.) is used to avoid high liquid junction potentials. Data were analyzed by Origin 6.0 software.
Extracellular solution containing 140 mM NaCl, 2 mM CaCl2, 1 mM MgCl2, 5 mM KCl, 10 mM HEPES, 10 mM D-glucose was adjusted to pH 7.4 with NaOH, 290 to 310 mOsm. […]

[3] = test system: hyperpolarization-activated current (Ih) in TG neurons (HCN channels); test: Whole-cell recordings of Ih in TG neurons; type: cell-based, rat
TG neurons = test: Current-clamp action potential firing in TG neurons; type: cell-based, rat; settings: 200 μM
Experimental: TG neurons from 2- to 7-day-old neonatal rats or adult rats (200 to 300 g) were prepared as previously described [Fang, Z. et al., J. Biol. Chem., 2007, 282: 4757-4764]. Briefly, TG neurons prepared in 4° C. Hanks balanced salt solution (Welgene, Daegu, Korea) were incubated in 2 mL Hanks balanced salt solution containing 0.167% trypsin (Invitrogen, Carlsbad, Calif.) at 37° C. for 40 min. The cells were washed in DMEM and triturated with a flame-polished Pasteur pipette to separate cells and remove processes, and subsequently centrifuged (750 RPM, 5 min), resuspended and placed on 0.5 mg/mL poly-L-ornithine (Sigma, St. Louis, Mo.)-coated glass coverslips (12 mm in diameter). The cells were maintained at 37° C. in a […]/5% CO2 incubator.
Whole-cell recordings were made using patch electrodes (4 to 6 MΩ) pulled from borosilicate glass on a Brown-Flaming P-97 horizontal micropipette puller (Sutter Instruments, Novato, Calif.). Voltage- and current-clamp experiments were performed using an HEKA EPC9 amplifier and digitized using ITC16 and Pulse v8.54 software (both from HEKA, Lambrecht/Pfalz, Germany). […] Data were analyzed by Origin 6.0 software. […]
Ih was elicited by a 2 s pulse from a holding potential of −50 mV to −120 mV in 10 mV steps. […] The reversal potential of the eugenol-sensitive currents was determined by measuring the tail currents. […]

ION-CCI rats [4] = test: Thermal hyperalgesia, head withdrawal latency to radiant heat; type: in vivo, rat
Experimental: as §1, §2
Thermal hyperalgesia was also determined as previously described [Ahn, D. K. et al., Pain, 2009, 146: 114-120; Park, C. K. et al., Pain, 2009, 144: 84-94]. Each rat was placed in a customized cylinder-type acrylic rodent restrainer (height 40 to 60 mm, length 70 to 120 mm). […] Each restrainer was placed in a darkened and noise-free room, and the animals were habituated for at least 30 min before the start of the experiment. After radiant heat was applied to the midregion of the left vibrissa pad, the head withdrawal latency was determined. The application of heat stimuli was performed using an infrared thermal stimulator (Infrared Diode Laser, LVI-808-10, LVI tech, Seoul, Korea). The power and current of the thermal stimulator were adjusted to 11 W and 18.1 A, respectively. The thermal stimuli produced stable withdrawal latencies of approximately 11 s for a 10-cm distance from the heat source to the vibrissa pad. […] After eugenol (10 μg/30 μL or 50 μg/30 μL; 2 mM or 10 mM, respectively) was administered subcutaneously into the vibrissa pad, the latencies of withdrawal responses were determined at 10, 20, 30, 40, 50, and 60 min and 24 h after eugenol injection. […]

[5] = test system: voltage-gated sodium channels (VGSCs); settings: conventional concentration, equals 50 μg; cited from earlier work
ION-CCI rats [6] = settings: >50 μg; cited from earlier work
[7] = concentration lower than that which would inhibit VGSCs (50 μg; 10 mM)

Compound: CCN(c1ccccc1)c1cc(=NC)n(C)c(C)n1.Cl [ZD7288]
- pain behavior (injured nerve fibers): reversed
- spontaneous discharges in injured nerve fibers (injured nerve fibers): reversed
- action potential duration (Ih conductance): prolonged
- repetitive firing during tetanic bursts (Ih conductance): diminished

Compound: C=CCc1ccc(O)c(OC)c1 [eugenol, 4-allyl-2-methoxyphenol]
- air-puff thresholds (ION-CCI rats [1]; 1 μg subcutaneous into vibrissa pad, 7 day ION-CCI): significantly enhanced
- air-puff threshold (ION-CCI rats [1]; 5 to 10 μg subcutaneous, cutoff 40 psi): reached the cutoff
- onset of effect (ION-CCI rats [1]; FIG. 7B): occurred immediately
- effect on mechanical allodynia (ION-CCI rats [1]; [7]): ameliorating effect
- antiallodynic effects on mechanical allodynia (ION-CCI rats [1]; subcutaneous 1 μg, 5 μg, 10 μg, n=6 per group, p<0.05): significantly produced prolonged the antiallodynic effects
- VGSC currents [2]: not affected
- eugenol-induced Ih inhibition with 8-Br-cAMP ([3]; 200 μM eugenol, 8-Br-cAMP (100 μM) in pipette solution, n=6): 17.5±3.7%
- eugenol-induced Ih inhibition with Rp-cAMPs ([3]; 200 μM eugenol, Rp-cAMPs (100 μM), n=6): 25.7±3.4%
- eugenol-induced Ih inhibition with Sp-cAMPS ([3]; 200 μM eugenol, Sp-cAMPs (100 μM), n=5): 20.1±3.1%
- Ih inhibition after pretreatment with NEM ([3]; 200 μM eugenol, TG neurons pretreated 5 min with NEM (50 μM), n=8): 69.2±4.4%
- Ih inhibition ([3]; 200 μM, TG neurons of adult (naive) rats, n=11): 73.0±3.9%
- Ih inhibition ([3]; 200 μM, TG neurons of neonatal rats, n=27): 63.3±1.6%
- Ih inhibition ([3]; 200 μM, injured DiI-labeled TG neurons of ION-CCI rats, n=7): 67.5±4.0%
- reversibility of Ih inhibition ([3]; 200 μM, sequential application, FIG. 2A): reversible and repetitively reproduced
- maximal Ih amplitude ([3]; 200 μM, step pulses −50 to −120 mV, full range of voltages): reduced
- Eugenol-induced Ih inhibition ([3]; 200 μM, without NEM, n=8, FIG. 6A): 66.1±1.8%
- Ih block ([3]; 500 μM and 1 mM, FIG. 3): complete Ih block
- mean Vrev (reversal potential of Ih) ([3]; after application of 200 μM eugenol, n=4, control −29.4±2.3 mV): −25.8±1.4 mV
- IC50 ([3]; read-out: IC50 of Ih inhibition, TG neurons, dose dependent, FIG. 3): 157 µM
- dV/dt of action potential (TG neurons): not changed
- firing rates of action potentials (TG neurons; 50 pA depolarizing current injection, n=4): reduced
- thermal hyperalgesia / thermal hypersensitivity (ION-CCI rats [4]; 50 μg subcutaneous, n=6, p<0.05): significantly reduced; also recorded: significantly inhibited
- thermal hyperalgesia (ION-CCI rats [4]; <10 μg): not effective
- effect on thermal hyperalgesia (ION-CCI rats [4]; [7]): no effect
- thermal hypersensitivity (ION-CCI rats [4]; low dose 10 μg subcutaneous, n=6): no effect
- concentration at which eugenol inhibits VGSCs [5]: 10 mM
- thermal pain / thermal hyperalgesia, previous study (ION-CCI rats [6]): blocks thermal pain in a dose-dependent manner; also recorded: ameliorated thermal hyperalgesia
